pEC50, pKd: −log10 of the molar value.
Assays:
RARβ = target: T1, RARβ (Homo sapiens, UniProt P10826); assay: Holoreceptor transactivation assay, RARβ; type: cell-based; details: for pEC50: CV1 cells, luciferase reporter, 36 hours incubation; for Transactivation Assay Afficacy (% of RA activity) RARβ: relative to all trans retinoic acid
T1 construct: expressed in transfected cells; host or cells: CV1 cells
T1 sequence (P10826 1-455): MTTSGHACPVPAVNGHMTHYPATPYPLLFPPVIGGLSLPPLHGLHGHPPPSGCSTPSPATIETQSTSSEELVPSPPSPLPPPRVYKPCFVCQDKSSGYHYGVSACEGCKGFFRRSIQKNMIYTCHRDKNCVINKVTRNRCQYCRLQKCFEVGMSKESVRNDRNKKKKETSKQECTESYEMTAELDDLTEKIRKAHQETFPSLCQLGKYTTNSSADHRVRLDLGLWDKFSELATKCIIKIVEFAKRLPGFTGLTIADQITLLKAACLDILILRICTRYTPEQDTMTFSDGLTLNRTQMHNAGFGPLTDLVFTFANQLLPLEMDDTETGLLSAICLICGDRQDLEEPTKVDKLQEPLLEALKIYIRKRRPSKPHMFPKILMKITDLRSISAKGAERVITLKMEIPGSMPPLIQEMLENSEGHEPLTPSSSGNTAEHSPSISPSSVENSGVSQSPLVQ
Description: (§1) A description of the holoreceptor transactivation assay is also provided below.
(§2) (8). […] (8, 9). […] A β-galactosidase (50 ng) expression vector was used as an internal control in the transfections to normalize for variations in transfection efficiency. The cells were transfected in triplicate for 6 hours, followed by incubation with retinoids for 36 hours, and the extracts were assayed for luciferase and β-galactosidase activities. The detailed experimental procedure for holoreceptor transactivations has been described in Heyman et al. above, and Allegretto et al. cited above. […] The results of ligand binding assay are expressed in KD50 numbers.

RXRΓ = target: T2, RXRΓ (Mus musculus, UniProt P28705); assay: Holoreceptor transactivation assay, RXRΓ; type: cell-based; details: for pEC50: CV1 cells, luciferase reporter, 36 hours incubation; for Transactivation Assay Afficacy (% of RA activity) RXRΓ: relative to all trans retinoic acid
T2 construct: expressed in transfected cells; host or cells: CV1 cells
T2 sequence (P28705 1-463): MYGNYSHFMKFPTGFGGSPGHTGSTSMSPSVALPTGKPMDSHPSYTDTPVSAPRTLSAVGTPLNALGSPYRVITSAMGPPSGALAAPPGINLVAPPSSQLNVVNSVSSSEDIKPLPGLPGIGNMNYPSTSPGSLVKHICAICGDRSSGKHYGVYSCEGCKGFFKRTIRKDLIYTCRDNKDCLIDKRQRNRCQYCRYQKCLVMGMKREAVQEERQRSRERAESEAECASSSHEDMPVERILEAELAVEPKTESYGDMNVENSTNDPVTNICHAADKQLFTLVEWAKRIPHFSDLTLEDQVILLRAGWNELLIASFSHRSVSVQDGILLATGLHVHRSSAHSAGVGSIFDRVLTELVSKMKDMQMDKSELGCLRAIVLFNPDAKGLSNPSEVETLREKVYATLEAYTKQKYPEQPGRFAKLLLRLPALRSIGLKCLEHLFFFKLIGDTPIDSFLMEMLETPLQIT
Description: as §1, §2

RXRβ = target: T3, RXRβ (Mus musculus, UniProt P28704); assay: Holoreceptor transactivation assay, RXRβ; type: cell-based; details: relative to all trans retinoic acid; read-out: Transactivation Assay Afficacy (% of RA activity) RXRβ
T3 sequence (P28704 1-520): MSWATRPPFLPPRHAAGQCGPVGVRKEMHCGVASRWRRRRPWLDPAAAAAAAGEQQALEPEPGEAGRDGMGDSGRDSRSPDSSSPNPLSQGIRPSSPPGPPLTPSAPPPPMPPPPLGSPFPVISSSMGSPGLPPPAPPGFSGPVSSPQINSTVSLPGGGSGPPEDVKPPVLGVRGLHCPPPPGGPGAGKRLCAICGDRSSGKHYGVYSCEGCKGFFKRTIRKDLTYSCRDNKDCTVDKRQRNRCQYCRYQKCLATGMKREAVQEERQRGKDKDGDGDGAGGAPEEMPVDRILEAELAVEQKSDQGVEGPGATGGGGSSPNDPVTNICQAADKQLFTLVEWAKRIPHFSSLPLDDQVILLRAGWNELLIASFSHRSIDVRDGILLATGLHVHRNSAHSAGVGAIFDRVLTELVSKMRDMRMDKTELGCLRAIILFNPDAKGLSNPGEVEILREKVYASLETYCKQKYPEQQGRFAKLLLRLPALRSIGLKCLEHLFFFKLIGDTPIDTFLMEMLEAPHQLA
Description: as §1, §2

RARΓ = target: T4, RARΓ (Homo sapiens, UniProt P13631); assay: Holoreceptor transactivation assay, RARΓ; type: cell-based; details: for pEC50: CV1 cells, luciferase reporter, 36 hours incubation; for Transactivation Assay Afficacy (% of RA activity) RARΓ: relative to all trans retinoic acid
T4 construct: expressed in transfected cells; host or cells: CV1 cells
T4 sequence (P13631 1-454): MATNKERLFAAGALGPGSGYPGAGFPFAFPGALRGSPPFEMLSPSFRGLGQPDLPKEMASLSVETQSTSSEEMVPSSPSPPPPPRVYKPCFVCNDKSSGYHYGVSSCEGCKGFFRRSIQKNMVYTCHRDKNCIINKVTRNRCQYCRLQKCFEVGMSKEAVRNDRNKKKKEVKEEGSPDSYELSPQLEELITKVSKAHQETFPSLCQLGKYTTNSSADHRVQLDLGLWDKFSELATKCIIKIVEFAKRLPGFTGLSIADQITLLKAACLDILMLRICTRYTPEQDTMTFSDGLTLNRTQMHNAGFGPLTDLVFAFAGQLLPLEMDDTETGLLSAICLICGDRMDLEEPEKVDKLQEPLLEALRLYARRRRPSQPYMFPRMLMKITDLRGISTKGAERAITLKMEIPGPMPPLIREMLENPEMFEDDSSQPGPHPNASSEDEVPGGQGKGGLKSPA
Description: as §1, §2

RARα = target: T5, RARα (Homo sapiens, UniProt P10276); assay: Holoreceptor transactivation assay, RARα; type: cell-based; details: for pEC50: CV1 cells, luciferase reporter, 36 hours incubation; for Transactivation Assay Afficacy (% of RA activity) RARα: relative to all trans retinoic acid
T5 construct: expressed in transfected cells; host or cells: CV1 cells
T5 sequence (P10276 1-462): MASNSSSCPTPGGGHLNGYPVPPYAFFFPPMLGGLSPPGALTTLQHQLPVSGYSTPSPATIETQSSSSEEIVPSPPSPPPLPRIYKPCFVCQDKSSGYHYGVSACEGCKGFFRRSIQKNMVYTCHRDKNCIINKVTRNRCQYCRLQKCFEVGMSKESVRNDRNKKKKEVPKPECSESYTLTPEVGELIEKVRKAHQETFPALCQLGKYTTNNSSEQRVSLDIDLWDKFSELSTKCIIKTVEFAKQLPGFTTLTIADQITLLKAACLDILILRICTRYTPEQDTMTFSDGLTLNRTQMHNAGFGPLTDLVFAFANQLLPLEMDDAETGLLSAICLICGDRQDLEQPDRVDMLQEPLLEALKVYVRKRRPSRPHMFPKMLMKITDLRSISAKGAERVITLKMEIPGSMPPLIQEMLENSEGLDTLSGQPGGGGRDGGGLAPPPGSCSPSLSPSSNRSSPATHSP
Description: as §1, §2

RXRα [1] = target: T6, RXRα (Homo sapiens, UniProt P19793); assay: Holoreceptor transactivation assay, RXRα; type: cell-based; details: for pEC50: CV1 cells, luciferase reporter, 36 hours incubation; for Transactivation Assay Afficacy (% of RA activity) RXRα: relative to all trans retinoic acid
T6 construct: expressed in transfected cells; host or cells: CV1 cells
T6 sequence (P19793 1-462): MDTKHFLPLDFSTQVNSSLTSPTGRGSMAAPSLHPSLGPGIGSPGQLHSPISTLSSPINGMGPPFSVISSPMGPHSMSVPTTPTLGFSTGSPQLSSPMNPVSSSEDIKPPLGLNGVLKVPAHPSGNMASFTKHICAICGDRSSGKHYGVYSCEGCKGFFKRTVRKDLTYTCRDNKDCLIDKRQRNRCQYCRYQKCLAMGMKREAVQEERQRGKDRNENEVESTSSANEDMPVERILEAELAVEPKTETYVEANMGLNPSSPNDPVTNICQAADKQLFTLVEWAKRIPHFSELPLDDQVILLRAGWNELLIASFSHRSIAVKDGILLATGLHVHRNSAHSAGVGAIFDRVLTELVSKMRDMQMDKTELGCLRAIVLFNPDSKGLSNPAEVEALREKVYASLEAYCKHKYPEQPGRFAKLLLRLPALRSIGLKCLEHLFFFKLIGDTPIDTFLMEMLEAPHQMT
Excerpt: (§3) A holoreceptor transactivation assay and a ligand binding assay which measure the agonist like activity of the compounds of the invention, or their ability to bind to the several retinoid receptor sub-types, respectively, are described in published PCT Application No. WO WO93/11755 (particularly on pages 30-33 and 37-41) published on Jun. 24, 1993, the specification of which is also incorporated herein by reference. A description of the holoreceptor transactivation assay is also provided below.
(§4) CV1 cells (5,000 cells/well) were transfected with an RAR reporter plasmid ▴MTV-TREp-LUC (50 ng) along with one of the RAR expression vectors (10 ng) in an automated 96-well format by the calcium phosphate procedure of Heyman et al. Cell 68, 397-406. (8). For RXR transactivation assays, an RXR-responsive reporter plasmid CRBP II-TK-LUC (50 ng) along with one of the RXR expression vectors (10 ng) was used substantially as described by Heyman et al. above, and Allegretto et al. J. Biol. Chem. 268, 26625-26633. (8, 9). RXR-reporter contained DRI elements from human CRBP II promoter (see Mangelsdorf et al. The Retinoids: Biology, Chemistry and Medicine, pp 319-349, Raven Press Ltd., New York and Heyman et al., cited above) (1, 8). A β-galactosidase (50 ng) expression vector was used as an internal control in the transfections to normalize for variations in transfection efficiency. The cells were transfected in triplicate for 6 hours, followed by incubation with retinoids for 36 hours, and the extracts were assayed for luciferase and β-galactosidase activities. The detailed experimental procedure for holoreceptor transactivations has been described in Heyman et al. above, and Allegretto et al. cited above. The results obtained in this assay in connection with examplary compounds in accordance with the present invention are expressed in EC50 numbers, as they are also in the chimeric receptor transactivation assay. The Heyman et al. Cell 68, 397-406, Allegretto et al. J. Biol. Chem. 268, 26625-26633, and Mangelsdorf et al. The Retinoids: Biology, Chemistry and Medicine, pp 319-349, Raven Press Ltd., New York, are expressly incorporated herein by reference. The results of ligand binding assay are expressed in KD50 numbers.

RXRα [2] = target: T6, RXRα; assay: Ligand binding assay, RXRα; details: read-out: Ligand Binding Assay KD50 RXRα
Excerpt: as §3
as §4, with “The Heyman et al. Cell 68, 397-406, Allegretto et al. J. Biol. Chem. 268, 26625-26633, and Mangelsdorf et al. The Retinoids: Biology, Chemistry and Medicine, pp 319-349, Raven Press Ltd., New York, are expressly incorporated herein by reference. The results of ligand binding assay are expressed in KD50 numbers.” left out

Structure (SMILES) | pEC50 (RARβ) | Transactivation Assay Afficacy (% of RA activity) RARβ (RARβ) | pEC50 (RXRΓ) | Transactivation Assay Afficacy (% of RA activity) RXRΓ (RXRΓ) | Emax (RXRβ) [%] | pEC50 (RARΓ) | Transactivation Assay Afficacy (% of RA activity) RARΓ (RARΓ) | pEC50 (RARα) | Transactivation Assay Afficacy (% of RA activity) RARα (RARα) | pEC50 (RXRα [1]) | Transactivation Assay Afficacy (% of RA activity) RXRα (RXRα [1]) | pKd (RXRα [2])
CC(/C=C/c1ccccc1-c1ccc2c(c1)C(C)(C)CCC2(C)C)=C\C(=O)O [Compound 9, 3-Methyl-5-[2-(5,5,8,8,-tetramethyl-5,6,7,8-tetrahydronaphth-2-yl)phenyl]pent-2(E),4(E)-dienoic Acid] | < 6.00 | 8.0 % of RA activity | 6.62 | 50.0 % of RA activity | 94 | < 6.00 | 8.0 % of RA activity | < 6.00 | 2.0 % of RA activity | 6.54 | 59.0 % of RA activity | –
CC(C=CC1CC1(C)c1cc2c(cc1C)C(C)(C)CCC2(C)C)=CC(=O)O (stereo not drawn) [Compound 13, 3,7-Dimethyl,6(RS),7(SR) methano-7-(3,5,5,8,8-pentamethyl-5,6,7,8-tetrahydronaphth-2-yl),2(E),4(E)-heptadienoic Acid] | < 6.00 | 3.0 % of RA activity | 7.15 | 40.0 % of RA activity | 72 | < 6.00 | 8.0 % of RA activity | < 6.00 | 0.0 % of RA activity | 6.89 | 55.0 % of RA activity | 7.15
CC(C=CC1CC1(C)c1ccc2c(c1)C(C)(C)CCS2)=CC(=O)O (stereo not drawn) [Compound 17, 3,7-Dimethyl,6(RS),7(SR) methano-7-(4,4-dimethylthiochroman-6-yl) 2(E),4(E)-heptadienoic Acid] | 7.32 | 29 % of RA activity | 7.89 | 73 % of RA activity | 118 | 6.57 | 41 % of RA activity | 5.92 | 30 % of RA activity | 7.52 | 111 % of RA activity | 8.52
CC(C=CC1CC1(C)c1ccc2c(c1)C(C)(C)CCO2)=CC(=O)O (stereo not drawn) [Compound 21, 3,7-Dimethyl,6(RS),7(SR) methano-7-(4,4-dimethyl-chroman-6-yl),2(E),4(E)-heptadienoic Acid] | 5.74 | 26.0 % of RA activity | 7.54 | 85.0 % of RA activity | 93 | < 6.00 | 14.0 % of RA activity | < 6.00 | 4.0 % of RA activity | 7.57 | 83.0 % of RA activity | 8.30
